# Test results reported in the METLIN SMRT retention time set (Domingo-Almenara et al. 2019).
# Assay: gradient 5% acetonitrile 3 min, to 50% in 2 min, to 85% in 15 min, held 3 min, 100 µL/min
# Details: column: Zorbax Extend-C18 2.1 x 50 mm; eluents: water / acetonitrile, 0.1% formic acid
# Procedure, shortened: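 In both positive and negative ionization mode, a quadrupole time-of-flight mass spectrometer coupled to HPLC analyzed pure standards run in mixtures of ~100 molecules. The Zorbax Extend-C18 column (2.1 × 50 mm, 1.8 μm) was operated at 100 μL/min with water and acetonitrile, each containing 0.1% formic acid. The dead volume was 40 μL and the dwell volume 900 μL. Retention time came from adduct peaks that were computationally picked and individually inspected by hand.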
row,Structure (SMILES),RP-LC retention time [s]
1,COc1ccc(-c2cc(N3CCN(C(=O)c4ccc(C(C)(C)C)cc4)CC3)ncn2)cc1,795
2,CCCNc1cc(N2CCC(CCC(=O)N3CCN(c4ccccn4)CC3)CC2)ncn1,570
3,O=C(NC1CCCCC1NC(=O)c1cccs1)c1cccs1 (centres undefined),728
4,O=C(c1cc(=O)c2ccccc2o1)N1CCC(c2nnc(-c3ccc(F)cc3)o2)CC1,746
5,O=C(NC1CCN(Cc2ccccc2)CC1)C1CCCN(C(=O)N2CCOc3ccccc32)C1 (centres undefined),641
6,CC1=C(c2ccccc2)S(=O)(=O)N=C1N1CCCN(C(=O)c2ccsc2)CC1,571
7,Cc1ccc(Sc2nccnc2N2CCCC(C(=O)NCCC(C)C)C2)cc1 (centres undefined),1140
8,CCc1noc(CN2N=C(C(=O)N3CCC(C)CC3)S(=O)(=O)c3ccccc32)n1,886
9,CCc1noc(NC(C)=O)c1-c1ccc(OC)c(S(=O)(=O)Nc2ccc(C)c(F)c2)c1,836
10,Cc1cc(F)ccc1NS(=O)(=O)c1c(C)sc(C)c1-c1cc(C(F)(F)F)on1,1200
11,COC1=CC(=O)C[C@@H](C)C12Oc1c(Cl)c(OC)cc(OC)c1C2=O (some centres undefined),812
12,CCOC(=O)c1noc2nc(C)nc(Nc3ccc(CN4CCN(CC)CC4)cc3)c12,612
13,Cc1ccc2nsnc2c1NC(=O)Cn1c(-c2cncs2)nc2ccccc21,682
14,COCCCNS(=O)(=O)c1cc(-c2[nH]ncc2C(=O)N2CCCCC2)oc1C,646
15,CCN(C(=O)C1CCCN(c2ncnc3c2nc2n3CCCCC2)C1)c1cccc(C)c1 (centres undefined),903
16,NC(=O)Nc1cc(-c2cccc(F)c2)sc1C(=O)N[C@H]1CCCNC1,650
17,CS(=O)(=O)N1CCCc2cc(C(=O)NCc3ccccn3)ccc21,607
18,CC(C)CC(=O)N1CCc2c(c(-c3nnc(-c4ccccc4Cl)o3)nn2C)C1,852
19,CCOC(=O)c1[nH]c(C)c(CCC(=O)N2CCC(C(=O)NCCCOC(C)C)CC2)c1C,706
20,CC(C)n1cc(S(=O)(=O)Nc2cccc(F)c2)c2cccnc21,877

row,Structure (SMILES),RP-LC retention time [s]
1,Cn1cc(CCN2CCC(C(=O)NC3CCCCCC3)CC2)c2cccnc21,616
2,O=C(CCc1c(-c2ccc(Cl)cc2)nc2ccccn12)NCc1ccccn1,571
3,COC(=O)COc1cc(O)c2c(=O)cc(-c3ccccc3)oc2c1,990
4,COCCCN1CN=C(Nc2nc(C)c3cc(C)ccc3n2)NC1,555
5,CC(=O)NCc1nc2ccccc2n1CC(=O)Nc1ccccc1C,617
6,Cc1nc(-c2csc(S(=O)(=O)N3CCN(c4cccc(Cl)c4)CC3)c2)sc1C,1270
7,Cc1cccc(N2C(=O)N(Cc3cccc(F)c3)S(=O)(=O)c3cccnc32)c1,1090
8,O=C(Nc1ccc2c(c1)OCO2)c1nnc(C(=O)N2CCCC(C(=O)NC3CCCC3)C2)s1 (centres undefined),860
9,CC(C)Cn1c(=O)c2ccccc2n(Cc2nc(-c3cccc(C(F)(F)F)c3)no2)c1=O,1030
10,CC(C)CN1C(=O)c2cccn2CC1C(=O)NCCN1CCOCC1 (centres undefined),568
11,O=C(Cc1ccsc1)N1CCOc2ccc(N3CCOCC3)cc2C1,743
12,COC(=O)CC(=O)Nc1cc2c(cc1N1CCOCC1)n(C)c(=O)n2C,597
13,O=C(NCCc1cccnc1)c1cn(-c2cc(N3CCOCC3)ncn2)cn1,565
14,c1ccc(-c2nc3ncc4c(n3n2)CCCCC4)cc1,892
15,CN(CCc1noc(COc2ccccc2)n1)C(=O)Nc1ccc(F)cc1,876
16,CC1=C(c2ccc(F)cc2)S(=O)(=O)N=C1N1CCCN(C(=O)c2ccsc2)CC1,802
17,Cc1noc(C)c1S(=O)(=O)N1CCOC(c2ccccc2)C1 (centres undefined),882
18,Cn1cnc2cc(CNC(=O)c3ccc(F)cc3)ccc21,577
19,Cc1cccc(-c2noc(Cc3nnc(-c4cc(C)cc(C)c4)o3)n2)c1,842
20,O=C(NCC1(CO)CC1)c1cccc(C(F)(F)F)c1,691

row,Structure (SMILES),RP-LC retention time [s]
1,Cc1cc(C)c(C#N)c(SCC(=O)N2CCOCC2)n1,721
2,CN1CCN(CCCNC(=O)CCCn2c(=O)c3cccn3c3ccc(F)cc32)CC1,582
3,CCC1CCCCN1c1cc(C)nc2nc(-c3ccc(C)cc3)nn12 (centres undefined),1160
4,CCN(C(=O)Cn1ccn2nc(-c3ccccc3)c(CO)c2c1=O)c1ccccc1,838
5,Cc1ccc(CNC(=O)CCCN2C(=O)CCn3nc(-c4cn(C)c5ccccc45)cc32)o1,815
6,Cc1c(-c2noc(-c3ccccc3)n2)nnn1Cc1ccccc1,1060
7,Nc1nc(SCC(=O)c2ccc3c(c2)OCCO3)n[nH]1,574
8,CC(C)Cn1nc(CNC(=O)c2ccoc2)c2ccccc21,846
9,Cc1cccc(-c2nnc(Cc3nc(-c4ccc5c(c4)OCO5)no3)o2)c1,1010
10,Cc1ccc(C)c(Nc2nc(-c3ccccc3)cs2)c1,1200
11,O=S(=O)(c1cccnc1)N1CC(c2nc(CCOCc3ccccc3)no2)C1,835
12,O=c1c2cnc3ncnn3c2ccn1C1CC1,583
13,CCCN(CCC)[C@@H]1CCc2ccc(O)cc2C1,671
14,CCOCCCNC(=O)N1CCCC(c2nn[nH]n2)C1 (centres undefined),591
15,O=C(Cn1ccc2ccn(Cc3cccnc3)c2c1=O)N1CCOCC1,569
16,CCOc1ccc(N2C(=O)C3N=NN(Cc4nc(-c5cccc(C(F)(F)F)c5)no4)C3C2=O)cc1 (centres undefined),1080
17,O=C(c1cccc(-n2cnnn2)c1)N1CC(c2nc(-c3ccccn3)no2)C1,648
18,Cc1cc(NC(=O)c2ccccc2C(F)(F)F)n(-c2nc(-c3cccs3)cs2)n1,1250
19,CCOC(=O)c1[nH]c(C)c(CCC(=O)N2CCCC(C(=O)N3CCCCCC3)C2)c1C (centres undefined),800
